Test results published in ChEMBL document CHEMBL3045603, “Synthesis and Microbiological Evaluation of Some N-Methyl Piperidone Oxime Ethers” (2005).
Values after ≈ are worked out from the molar mass of the structure shown. Active and inactive are the calls of the source. The rule behind the calls is not given here.

Key:
Escherichia coli [1] = experiment: Ratio of ciprofloxacin MIC to compound MIC for Escherichia coli; type: functional
Klebsiella pneumoniae [2] = experiment: Ratio of ciprofloxacin MIC to compound MIC for Klebsiella pneumoniae; type: functional
Pseudomonas aeruginosa = experiment: Antibacterial activity against Pseudomonas aeruginosa after 24 hr by two-fold serial dilution method; type: functional
Klebsiella pneumoniae [3] = experiment: Antibacterial activity against Klebsiella pneumoniae after 24 hr by two-fold serial dilution method; type: functional
Aspergillus flavus [4] = experiment: Antifungal activity against Aspergillus flavus after 72 to 96 hr by two-fold serial dilution method; type: functional
Candida albicans [5] = experiment: Antifungal activity against Candida albicans after 72 to 96 hr by two-fold serial dilution method; type: functional
Aspergillus niger [6] = experiment: Antifungal activity against Aspergillus niger after 72 to 96 hr by two-fold serial dilution method; type: functional
Escherichia coli [7] = experiment: Antibacterial activity against Escherichia coli after 24 hr by two-fold serial dilution method; type: functional
Staphylococcus aureus [8] = experiment: Antibacterial activity against Staphylococcus aureus after 24 hr by two-fold serial dilution method; type: functional
Cryptococcus neoformans [9] = experiment: Antifungal activity against Cryptococcus neoformans after 72 to 96 hr by two-fold serial dilution method; type: functional
Salmonella typhi [10] = experiment: Ratio of ciprofloxacin MIC to compound MIC for Salmonella enterica subsp. enterica serovar Typhi; type: functional
Rhizopus [11] = experiment: Antifungal activity against Rhizopus sp. after 72 to 96 hr by two-fold serial dilution method; type: functional
Salmonella typhi [12] = experiment: Antibacterial activity against Salmonella enterica subsp. enterica serovar Typhi after 24 hr by two-fold serial dilution method; type: functional
Klebsiella pneumoniae [13] = experiment: Antibacterial activity against Klebsiella pneumoniae at 200 ug/mL after 24 hr by two-fold serial dilution method; type: functional, organism-based
Rhizopus [14] = experiment: Antifungal activity against Rhizopus sp. at 200 ug/ml after 72 to 96 hr by two-fold serial dilution method; type: functional, organism-based
Aspergillus flavus [15] = experiment: Antifungal activity against Aspergillus flavus at 200 ug/ml after 72 to 96 hr by two-fold serial dilution method; type: functional, organism-based
Candida albicans [16] = experiment: Antifungal activity against Candida albicans at 200 ug/ml after 72 to 96 hr by two-fold serial dilution method; type: functional, organism-based
Staphylococcus aureus [17] = experiment: Ratio of ciprofloxacin MIC to compound MIC Staphylococcus aureus; type: functional
Cryptococcus neoformans [18] = experiment: Ratio of amphotericin-B MIC to compound MIC for Cryptococcus neoformans; type: functional
Aspergillus niger [19] = experiment: Ratio of amphotericin-B MIC to compound MIC for Aspergillus niger; type: functional

Row | Structure (SMILES) | Ratio (Escherichia coli [1]) | Ratio (Klebsiella pneumoniae [2]) | MIC (Pseudomonas aeruginosa) [µg/mL] | MIC (Klebsiella pneumoniae [3]) [µg/mL] | MIC (Aspergillus flavus [4]) [µg/mL] | MIC (Candida albicans [5]) [µg/mL] | MIC (Aspergillus niger [6]) [µg/mL] | MIC (Escherichia coli [7]) [µg/mL] | MIC (Staphylococcus aureus [8]) [µg/mL] | MIC (Cryptococcus neoformans [9]) [µg/mL] | Ratio (Salmonella typhi [10]) | MIC (Rhizopus [11]) [µg/mL] | MIC (Salmonella typhi [12]) [µg/mL] | inhibition (Klebsiella pneumoniae [13]) | inhibition (Rhizopus [14]) | inhibition (Aspergillus flavus [15]) | inhibition (Candida albicans [16]) | Ratio (Staphylococcus aureus [17]) | Ratio (Cryptococcus neoformans [18]) | Ratio (Aspergillus niger [19])
1 | CC1/C(=N\OCc2ccccc2)CC(c2ccc(Cl)cc2)N(C)C1c1ccc(Cl)cc1 (centres undefined) | 1 | 1 | 50 (≈ 110 µM) | 25 (≈ 55.1 µM) | 50 (≈ 110 µM) | 100 (≈ 221 µM) | 25 (≈ 55.1 µM) | 12.5 (≈ 27.6 µM) | 50 (≈ 110 µM) | 25 (≈ 55.1 µM) | 1 | 100 (≈ 221 µM) | 25 (≈ 55.1 µM) |  |  |  |  |  |  | 
2 | CC1/C(=N\OCc2ccccc2)CC(c2ccccc2)N(C)C1c1ccccc1 (centres undefined) |  |  | 50 (≈ 130 µM) |  | 100 (≈ 260 µM) | 200 (≈ 520 µM) | 50 (≈ 130 µM) | 100 (≈ 260 µM) | 100 (≈ 260 µM) | 100 (≈ 260 µM) |  |  | 100 (≈ 260 µM) | inactive | inactive |  |  |  |  | 
3 | CN1C(c2ccccc2)CC(=NOCc2ccccc2)CC1c1ccccc1 (centres undefined) |  |  | 100 (≈ 270 µM) |  |  |  | 100 (≈ 270 µM) | 200 (≈ 540 µM) | 200 (≈ 540 µM) | 100 (≈ 270 µM) |  |  | 100 (≈ 270 µM) | inactive | inactive | inactive | inactive |  |  | 
4 | COc1ccc(C2C/C(=N/OCc3ccccc3)C(C)C(c3ccc(OC)cc3)N2C)cc1 (centres undefined) |  | 2 | 12.5 (≈ 28.1 µM) | 25 (≈ 56.2 µM) | 25 (≈ 56.2 µM) | 25 (≈ 56.2 µM) | 25 (≈ 56.2 µM) | 25 (≈ 56.2 µM) | 12.5 (≈ 28.1 µM) | 12.5 (≈ 28.1 µM) |  | 12.5 (≈ 28.1 µM) | 50 (≈ 112 µM) |  |  |  |  | 2 |  | 
5 | COc1ccc(C2CC(=NOCc3ccccc3)CC(c3ccc(OC)cc3)N2C)cc1 (centres undefined) |  |  | 100 (≈ 232 µM) | 100 (≈ 232 µM) | 50 (≈ 116 µM) | 100 (≈ 232 µM) | 50 (≈ 116 µM) | 100 (≈ 232 µM) | 50 (≈ 116 µM) | 50 (≈ 116 µM) |  | 50 (≈ 116 µM) | 50 (≈ 116 µM) |  |  |  |  |  |  | 
6 | CC(C)C1/C(=N\OCc2ccccc2)CC(c2ccccc2)N(C)C1c1ccccc1 (centres undefined) |  |  | 50 (≈ 121 µM) | 100 (≈ 242 µM) |  | 50 (≈ 121 µM) | 100 (≈ 242 µM) | 50 (≈ 121 µM) | 100 (≈ 242 µM) | 25 (≈ 60.6 µM) |  | 200 (≈ 485 µM) | 50 (≈ 121 µM) |  |  | inactive |  |  |  | 
7 | O=C(O)c1cn(C2CC2)c2cc(N3CCNCC3)c(F)cc2c1=O [CIPROFLOXACIN] |  |  |  |  |  |  |  | 25 (≈ 75.4 µM) |  |  |  |  | 50 (≈ 151 µM) |  |  |  |  |  |  | 
8 | C[C@@H]1[C@H](O)[C@@H](C)/C=C/C=C/C=C/C=C/C=C/C=C/C=C/[C@H](O[C@@H]2O[C@H](C)[C@@H](O)[C@H](N)[C@@H]2O)C[C@@H]2O[C@](O)(C[C@@H](O)C[C@@H](O)[C@H](O)CC[C@@H](O)C[C@@H](O)CC(=O)O[C@H]1C)C[C@H](O)[C@H]2C(=O)O [AMPHOTERICIN B] |  |  |  |  | 50 (≈ 54.1 µM) | 25 (≈ 27.1 µM) | 50 (≈ 54.1 µM) |  |  | 25 (≈ 27.1 µM) |  | 25 (≈ 27.1 µM) |  |  |  |  |  |  |  | 
9 | CN1C(c2ccc(Cl)cc2)CC(=NOCc2ccccc2)CC1c1ccc(Cl)cc1 (centres undefined) |  |  | 100 (≈ 228 µM) | 100 (≈ 228 µM) | 200 (≈ 455 µM) | 100 (≈ 228 µM) | 100 (≈ 228 µM) | 50 (≈ 114 µM) | 200 (≈ 455 µM) | 50 (≈ 114 µM) |  | 200 (≈ 455 µM) | 100 (≈ 228 µM) |  |  |  |  |  |  | 
10 | Cc1ccc(C2CC(=NOCc3ccccc3)CC(c3ccc(C)cc3)N2C)cc1 (centres undefined) |  |  | 100 (≈ 251 µM) | 100 (≈ 251 µM) | 100 (≈ 251 µM) | 100 (≈ 251 µM) | 50 (≈ 125 µM) | 50 (≈ 125 µM) | 100 (≈ 251 µM) | 50 (≈ 125 µM) |  | 50 (≈ 125 µM) | 100 (≈ 251 µM) |  |  |  |  |  |  | 
11 | CCC1/C(=N\OCc2ccccc2)CC(c2ccccc2)N(C)C1c1ccccc1 (centres undefined) |  |  | 25 (≈ 62.7 µM) | 200 (≈ 502 µM) | 100 (≈ 251 µM) | 100 (≈ 251 µM) | 50 (≈ 125 µM) | 100 (≈ 251 µM) | 100 (≈ 251 µM) | 50 (≈ 125 µM) |  | 100 (≈ 251 µM) | 50 (≈ 125 µM) |  |  |  |  |  |  | 
12 | Cc1ccc(C2C/C(=N/OCc3ccccc3)C(C)C(c3ccc(C)cc3)N2C)cc1 (centres undefined) |  |  | 25 (≈ 60.6 µM) | 50 (≈ 121 µM) | 50 (≈ 121 µM) | 50 (≈ 121 µM) | 25 (≈ 60.6 µM) | 50 (≈ 121 µM) | 50 (≈ 121 µM) | 12.5 (≈ 30.3 µM) |  | 25 (≈ 60.6 µM) | 50 (≈ 121 µM) |  |  |  |  |  | 2 | 2
